For this assay, the target named is T1, Human STING (Homo sapiens, UniProt Q86WV6, G230A/H232R/R293Q/R71H).
T1 construct: using human THP1-Blue™ ISG SEAP based reporter cell line (Invivogen); host or cells: THP1-Blue ISG (human monocytic THP-1 derived SEAP reporter line)
The assay can be described thus: Stimulation of human STING signalling in THP1-Blue ISG SEAP reporter cell line. In kind it is cell-based. To be noted: THP1-Blue ISG cells, 18-20 hours incubation. The procedure:
Stimulation of Human STING Signalling in THP1 Cell Line
Compounds were tested for their STING activation potential using human THP1-Blue™ ISG SEAP based reporter cell line (Invivogen). Briefly, THP1-Blue ISG cells (100,000 cells/well) in 96 well plate were treated with varying concentrations of test and reference compounds and incubated at 37° C. with 5% CO2 for 18-20 hours. The control untreated cells were also set up. Post incubation, the cell supernatant was tested for SEAP (Secreted Embryonic Alkaline Phosphatase) activity using the QuantiBlue™ substrate reagent (Invivogen). The formation of blue coloured product was quantified by measuring absorbance at wavelength of 620 nm using PheraStar/Tecan reader. The average of duplicate readouts for each data point was plotted in GraphPad prism 6 against the concentration of test or reference compound to calculate EC50 value. The fold of SEAP induction or increase in luminescence at different data points was estimated against the un-stimulated cell control set.

Experimental findings from patent US12679849B2, “Macrocyclic compounds as STING agonists” (LUPIN LIMITED, priority 2019, dated 2026) are described below.

For orientation: EC50 means the midpoint of the concentration-response curve. A low value points to higher potency in that assay.

T1 sequence (Q86WV6 whole entry R71H/G230A/H232R/R293Q): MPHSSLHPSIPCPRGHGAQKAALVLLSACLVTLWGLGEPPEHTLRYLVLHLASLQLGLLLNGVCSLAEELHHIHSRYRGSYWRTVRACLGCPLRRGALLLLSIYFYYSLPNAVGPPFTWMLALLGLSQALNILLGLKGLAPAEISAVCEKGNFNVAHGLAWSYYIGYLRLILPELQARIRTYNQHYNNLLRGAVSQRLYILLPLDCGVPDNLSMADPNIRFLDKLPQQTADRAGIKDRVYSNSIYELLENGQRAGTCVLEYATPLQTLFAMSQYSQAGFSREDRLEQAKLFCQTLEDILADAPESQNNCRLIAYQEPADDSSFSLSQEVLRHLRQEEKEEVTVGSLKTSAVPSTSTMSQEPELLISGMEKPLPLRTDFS

`CCn1nc(C)cc1C(=O)Nc1nc2cc(C(N)=O)cc3c2n1C/C=C/Cn1c(NC(=O)c2cc(C)nn2CC)nc2cc(C(N)=O)cc(c21)OCC(CCN1CCOCC1)CO3` [Compound 13, (E)-1,15-bis(1-ethyl-3-methyl-1H-pyrazole-5-carboxamido)-8-(2-morpholinoethyl)-8,9,16,19-tetrahydro-7H-6,10-dioxa-2,14,15a,19a-tetraazacyclopentadeca[3,2,1-cd:8,9,10-c′d′]diindene-4,12-dicarboxamide]: the EC50 fell in the range of 11 to 100 nM.

Regarding `CCn1nc(C)cc1C(=O)Nc1nc2cc(C(N)=O)cc3c2n1C/C=C/Cn1c(NC(=O)c2cc(C)nn2CC)nc2cc(C(N)=O)cc(c21)OCC(N1CC[C@@H](OC)C1)CO3` [Compound 35, (R,E)-1,15-bis(1-ethyl-3-methyl-1H-pyrazole-5-carboxamido)-8-(3-methoxypyrrolidin-1-yl)-8,9,16,19-tetrahydro-7H-6,10-dioxa-2,14,15a,19a-tetraazacyclopentadeca[3,2,1-cd:8,9,10-c′d′]diindene-4,12-dicarboxamide], the EC50 lay within 1 to 10 nM.

As to `CCn1nc(C)cc1C(=O)Nc1nc2cc(C(N)=O)cc3c2n1C/C=C/Cn1c(NC(=O)c2cc(C)nn2CC)nc2cc(C(N)=O)cc(c21)OCC(N1CCOCC1)CO3` [Compound 3, (E)-1,15-bis(1-ethyl-3-methyl-1H-pyrazole-5-carboxamido)-8-morpholino-8,9,16,19-tetrahydro-7H-6,10-dioxa-2,14,15a,19a-tetraazacyclopentadeca[3,2,1-cd:8,9,10-c′d′]diindene-4,12-dicarboxamide], the EC50 was in the range of 1 to 10 nM.

`CCn1nc(C)cc1C(=O)Nc1nc2cc(C(N)=O)cc3c2n1C/C=C/Cn1c(NC(=O)c2cc(C)nn2CC)nc2cc(C(N)=O)cc(c21)OCC(N1CCC(C#N)C1)CO3` (stereo not shown) [Compound 26, (E)-8-(3-cyanopyrrolidin-1-yl)-1,15-bis(1-ethyl-3-methyl-1H-pyrazole-5-carboxamido)-8,9,16,19-tetrahydro-7H-6,10-dioxa-2,14,15a,19a-tetraazacyclopentadeca[3,2,1-cd:8,9,10-c′d′]diindene-4,12-dicarboxamide] gave an EC50 of 1 to 10 nM.

`CCn1nc(C)cc1C(=O)Nc1nc2cc(C(N)=O)cc3c2n1C/C=C/Cn1c(NC(=O)c2cc(C)nn2CC)nc2cc(C(N)=O)cc(c21)O[C@H]1CN[C@@H](CO3)C1` [Compound 20, (33R,35R,E)-12,62-bis(1-ethyl-3-methyl-1H-pyrazole-5-carboxamido)-11H,61H-2,5-dioxa-1,6(7,1)-dibenzo[d]imidazola-3(3,5)-pyrrolidinacyclodecaphan-8-ene-15,65-dicarboxamide] came in with an EC50 of 11 to 100 nM.

On to `CCn1nc(C)cc1C(=O)Nc1nc2cc(C(N)=O)cc3c2n1C/C=C/Cn1c(NC(=O)c2cc(C)nn2CC)nc2cc(C(N)=O)cc(c21)OCC(C1CCN(C)CC1)CO3` [Compound 9, (E)-1,15-bis(1-ethyl-3-methyl-1H-pyrazole-5-carboxamido)-8-(1-methylpiperidin-4-yl)-8,9,16,19-tetrahydro-7H-6,10-dioxa-2,14,15a,19a-tetraazacyclopentadeca[3,2,1-cd:8,9,10-c′d′]diindene-4,12-dicarboxamide], for which the EC50 lay in the range of 11 to 100 nM.

Compound `CCn1nc(C)cc1C(=O)Nc1nc2cc(C(N)=O)cc3c2n1C/C=C/Cn1c(NC(=O)c2cc(C)nn2CC)nc2cc(C(N)=O)cc(c21)OCC(N1CC[C@H](O)C1)CO3` [Compound 11, (S,E)-1,15-bis(1-ethyl-3-methyl-1H-pyrazole-5-carboxamido)-8-(3-hydroxypyrrolidin-1-yl)-8,9,16,19-tetrahydro-7H-6,10-dioxa-2,14,15a,19a-tetraazacyclopentadeca[3,2,1-cd:8,9,10-c′d′]diindene-4,12-dicarboxamide] had an EC50 of 1 to 10 nM.

In turn, `CCn1nc(C)cc1C(=O)Nc1nc2cc(C(N)=O)cc3c2n1C/C=C/Cn1c(NC(=O)c2cc(C)nn2CC)nc2cc(C(N)=O)cc(c21)OCC(N1CCC(O)CC1)CO3` [Compound 22, (E)-1,15-bis(1-ethyl-3-methyl-1H-pyrazole-5-carboxamido)-8-(4-hydroxypiperidin-1-yl)-8,9,16,19-tetrahydro-7H-6,10-dioxa-2,14,15a,19a-tetraazacyclopentadeca[3,2,1-cd:8,9,10-c′d′]diindene-4,12-dicarboxamide] returned an EC50 of 11 to 100 nM.

In the case of `CCn1nc(C)cc1C(=O)Nc1nc2cc(C(N)=O)cc3c2n1C/C=C/Cn1c(NC(=O)c2cc(C)nn2CC)nc2cc(C(N)=O)cc(c21)OCC(c1ccccn1)CO3` [Compound 36, (E)-1,15-bis(1-ethyl-3-methyl-1H-pyrazole-5-carboxamido)-8-(pyridin-2-yl)-8,9,16,19-tetrahydro-7H-6,10-dioxa-2,14,15a,19a-tetraazacyclopentadeca[3,2,1-cd:8,9,10-c′d′]diindene-4,12-dicarboxamidexamide], the concentration for a half-maximal effect (EC50) lay in the range of 11 to 100 nM.

The compound `CCn1nc(C)cc1C(=O)Nc1nc2cc(C(N)=O)cc3c2n1C/C=C/Cn1c(NC(=O)c2cc(C)nn2CCF)nc2cc(C(N)=O)cc(c21)OCC(N1CCOCC1)CO3` (stereo not shown) [Compound 17, (E)-15-(1-ethyl-3-methyl-1H-pyrazole-5-carboxamido)-1-(1-(2-fluoroethyl)-3-methyl-1H-pyrazole-5-carboxamido)-8-morpholino-8,9,16,19-tetrahydro-7H-6,10-dioxa-2,14,15a,19a-tetraazacyclopentadeca[3,2,1-cd:8,9,10-c′d′]diindene-4,12-dicarboxamide] showed an EC50 of 11 to 100 nM.

`CCn1nc(C)cc1C(=O)Nc1nc2cc(C(N)=O)cc3c2n1C/C=C/Cn1c(NC(=O)c2cc(C)nn2CC)nc2cc(C(N)=O)cc(c21)OCC(CN1CCOCC1)CO3` [Compound 16, (E)-1,15-bis(1-ethyl-3-methyl-1H-pyrazole-5-carboxamido)-8-(morpholinomethyl)-8,9,16,19-tetrahydro-7H-6,10-dioxa-2,14,15a,19a-tetraazacyclopentadeca[3,2,1-cd:8,9,10-c′d′]diindene-4,12-dicarboxamide] yielded a concentration giving a half-maximal response (EC50) of 11 to 100 nM.

In turn, `CCn1nc(C)cc1C(=O)Nc1nc2cc(C(N)=O)cc3c2n1C/C=C/Cn1c(NC(=O)c2cc(C)nn2CC)nc2cc(C(N)=O)cc(c21)OCC(N1C[C@@H](C)O[C@@H](C)C1)CO3` [Compound 5, (E)-8-((2S,6R)-2,6-dimethylmorpholino)-1,15-bis(1-ethyl-3-methyl-1H-pyrazole-5-carboxamido)-8,9,16,19-tetrahydro-7H-6,10-dioxa-2,14,15a,19a-tetraazacyclopentadeca[3,2,1-cd:8,9,10-c′d′]diindene-4,12-dicarboxamide] came in with an EC50 of 1 to 10 nM.

`CCn1nc(C)cc1C(=O)Nc1nc2cc(C(N)=O)cc3c2n1C/C=C/Cn1c(NC(=O)c2cc(C)nn2CC)nc2cc(C(N)=O)cc(c21)OCC(n1ccnc1)CO3` [Compound 19, (E)-1,15-bis(1-ethyl-3-methyl-1H-pyrazole-5-carboxamido)-8-(1H-imidazol-1-yl)-8,9,16,19-tetrahydro-7H-6,10-dioxa-2,14,15a,19a-tetraazacyclopentadeca[3,2,1-cd:8,9,10-c′d′]diindene-4,12-dicarboxamide] returned an EC50 of 1 to 10 nM.

`CCn1nc(C)cc1C(=O)Nc1nc2cc(C(N)=O)cc3c2n1C/C=C/Cn1c(NC(=O)c2cc(C)nn2CC)nc2cc(C(N)=O)cc(c21)OCC(N1CC[C@H](OC)C1)CO3` [Compound 6, (S,E)-1,15-bis(1-ethyl-3-methyl-1H-pyrazole-5-carboxamido)-8-(3-methoxypyrrolidin-1-yl)-8,9,16,19-tetrahydro-7H-6,10-dioxa-2,14,15a,19a-tetraazacyclopentadeca[3,2,1-cd:8,9,10-c′d′]diindene-4,12-dicarboxamide] gave an EC50 of 1 to 10 nM.

On to `CCn1nc(C)cc1C(=O)Nc1nc2cc(C(N)=O)cc3c2n1C/C=C/Cn1c(NC(=O)c2cc(C)nn2CC)nc2cc(C(N)=O)cc(c21)OCC(N1CCC(F)(F)CC1)CO3` [Compound 4, (E)-8-(4,4-difluoropiperidin-1-yl)-1,15-bis(1-ethyl-3-methyl-1H-pyrazole-5-carboxamido)-8,9,16,19-tetrahydro-7H-6,10-dioxa-2,14,15a,19a-tetraazacyclopentadeca[3,2,1-cd:8,9,10-c′d′]diindene-4,12-dicarboxamide], for which the EC50 is 11 to 100 nM.

`CCn1nc(C)cc1C(=O)Nc1nc2cc(C(N)=O)cc3c2n1C/C=C/Cn1c(NC(=O)c2cc(C)nn2CC)nc2cc(C(N)=O)cc(c21)OCC(N1CC[C@@H](O)C1)CO3` [Compound 12, (R,E)-1,15-bis(1-ethyl-3-methyl-1H-pyrazole-5-carboxamido)-8-(3-hydroxypyrrolidin-1-yl)-8,9,16,19-tetrahydro-7H-6,10-dioxa-2,14,15a,19a-tetraazacyclopentadeca[3,2,1-cd:8,9,10-c′d′]diindene-4,12-dicarboxamide] had an EC50 of 1 to 10 nM.
